The text below walks through data of ChEMBL document CHEMBL4196134, “Enantiomeric Pairs of Meroterpenoids with Diverse Heterocyclic Systems from Rhododendron nyingchiense” (J Nat Prod, 2018).

The assay concerns the target T1, Tyrosine-protein phosphatase non-receptor type 1 (Homo sapiens, UniProt P18031).
T1 sequence (P18031 whole entry): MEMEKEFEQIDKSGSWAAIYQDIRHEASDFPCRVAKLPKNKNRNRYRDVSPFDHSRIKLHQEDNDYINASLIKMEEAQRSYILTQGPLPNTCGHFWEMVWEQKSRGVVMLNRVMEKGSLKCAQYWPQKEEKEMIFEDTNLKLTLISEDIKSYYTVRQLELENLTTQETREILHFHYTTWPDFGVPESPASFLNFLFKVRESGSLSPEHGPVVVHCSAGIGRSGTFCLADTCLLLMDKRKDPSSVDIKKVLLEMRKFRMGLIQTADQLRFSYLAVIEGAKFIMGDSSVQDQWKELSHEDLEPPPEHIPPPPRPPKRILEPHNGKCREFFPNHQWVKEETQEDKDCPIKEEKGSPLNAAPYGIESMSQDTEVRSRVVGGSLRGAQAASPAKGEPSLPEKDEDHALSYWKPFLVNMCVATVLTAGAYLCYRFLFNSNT
The assay can be described thus: Inhibition of recombinant human PTP1B catalytic domain ([…]) expressed in Escherichia coli BL21-codon plus (DE3) using pNPP as substrate measured continuously for 3 mins by colorimetric method.
For the compound `CC1=CC(=O)C=C2O[C@@]3(C)CC[C@H](C(C)(C)O)[C@H]3[C@H]3O[C@@]123`, the IC50 was determined as 38.1 µM. To `C=C(C)[C@@H]1CC[C@]2(C)Oc3cc(O)cc(C)c3[C@H]1[C@H]2O` belongs 48.1 µM; to `C=C(C)[C@@H]1CC[C@]2(C)Oc3cc(O)cc(C)c3C[C@H]12`, 61 µM; to `C=C(C)[C@H]1CC[C@@]2(C)Oc3cc(O)cc(C)c3[C@@H]1[C@@H]2O`, 29 µM. Turning to `Cc1cc(O)cc2c1O[C@H]1OC(C)(C)[C@@H]3CC[C@@](C)(O2)[C@@H]13`, the IC50 is 43.6 µM. To `Cc1cc(O)cc2c1[C@H]1[C@@H]3[C@@H](CC[C@]3(C)O2)C1(C)C` belongs 58.2 µM; to `CC(C)=CCC/C(C)=C/CC/C(C)=C/Cc1c(O)cc(C)cc1O` [GRIFOLIN], 5.7 µM.

As usually defined, the IC50 is the concentration at which inhibition is half-maximal.
